ChEMBL document CHEMBL1201862, “PubChem BioAssay data set” (2004)
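Briefly, cells in 96-well plates were exposed to five compound concentrations for 48 h, and endpoints were estimated by linear interpolation. GI50 is the concentration that inhibits growth by half.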 Active and inactive are the calls of the source. Rule as the data show it: active = GI50 up to about 1.1 µM and inactive = higher.

Experiments:
Test in all cases: growth of human tumour cells (NCI), 48 h
HT-29 = tested on: HT-29
RPMI-8226 = tested on: RPMI-8226
K562 = tested on: K562
SF-539 = tested on: SF-539
HOP-92 = tested on: HOP-92
M14 = tested on: M14
A549 = tested on: A549
ACHN = tested on: ACHN
MOLT-4 = tested on: MOLT-4
SNB-75 = tested on: SNB-75
OVCAR-8 = tested on: OVCAR-8
EKVX = tested on: EKVX
UACC-257 = tested on: UACC-257
OVCAR-5 = tested on: OVCAR-5
NCI-H522 = tested on: NCI-H522
IGROV-1 = tested on: IGROV-1
DU-145 = tested on: DU-145
SK-MEL-5 = tested on: SK-MEL-5
CCRF-CEM = tested on: CCRF-CEM
KM12 = tested on: KM12

Compound | GI50 (HT-29) | GI50 (RPMI-8226) | GI50 (K562) | GI50 (SF-539) | GI50 (HOP-92) | GI50 (M14) | GI50 (A549) | GI50 (ACHN) | GI50 (MOLT-4) | GI50 (SNB-75) | GI50 (OVCAR-8) | GI50 (EKVX) | GI50 (UACC-257) | GI50 (OVCAR-5) | GI50 (NCI-H522) | GI50 (IGROV-1) | GI50 (DU-145) | GI50 (SK-MEL-5) | GI50 (CCRF-CEM) | GI50 (KM12)
Clc1ccc(-c2nnc(C34CC5CC(CC(C5)C3)C4)o2)cc1 | > 100 µM (inactive) | > 100 µM (inactive) | > 100 µM (inactive) | > 100 µM (inactive) | > 100 µM (inactive) | > 100 µM (inactive) | > 100 µM (inactive) | > 100 µM (inactive) | > 100 µM (inactive) | > 100 µM (inactive) | > 100 µM (inactive) | > 100 µM (inactive) | > 100 µM (inactive) | > 100 µM (inactive) | > 100 µM (inactive) | > 100 µM (inactive) | > 100 µM (inactive) | > 100 µM (inactive) | > 100 µM (inactive) | –
Cc1nn2c(C(=O)N/N=C/c3ccc([N+](=O)[O-])cc3)c(C)nc2s1 | > 100 µM (inactive) | – | 94.2 µM (inactive) | 31.4 µM (inactive) | > 100 µM (inactive) | > 100 µM (inactive) | > 100 µM (inactive) | 50 µM (inactive) | 41 µM (inactive) | 50.5 µM (inactive) | > 100 µM (inactive) | > 100 µM (inactive) | > 100 µM (inactive) | > 100 µM (inactive) | 51.2 µM (inactive) | > 100 µM (inactive) | > 100 µM (inactive) | > 100 µM (inactive) | > 100 µM (inactive) | > 100 µM (inactive)
C[N+](C)(C)CCN(Cc1cccs1)c1ccccn1 | – | > 100 µM (inactive) | 64.3 µM (inactive) | > 100 µM (inactive) | 3.6 µM (inactive) | > 100 µM (inactive) | 68.9 µM (inactive) | > 100 µM (inactive) | – | 59.8 µM (inactive) | > 100 µM (inactive) | – | > 100 µM (inactive) | – | 40.8 µM (inactive) | > 100 µM (inactive) | > 100 µM (inactive) | > 100 µM (inactive) | > 100 µM (inactive) | > 100 µM (inactive)
O=c1[nH]nc(-c2ccccc2)n1/N=C\c1ccccc1 | > 100 µM (inactive) | > 100 µM (inactive) | > 100 µM (inactive) | > 100 µM (inactive) | > 100 µM (inactive) | – | > 100 µM (inactive) | > 100 µM (inactive) | > 100 µM (inactive) | > 100 µM (inactive) | > 100 µM (inactive) | > 100 µM (inactive) | > 100 µM (inactive) | > 100 µM (inactive) | > 100 µM (inactive) | – | > 100 µM (inactive) | > 100 µM (inactive) | > 100 µM (inactive) | > 100 µM (inactive)
COc1ccc(NC(=O)CSc2nnc(-c3ccc(/N=C\c4ccc(Cl)cc4)cc3)o2)cc1 | 42.8 µM (inactive) | 9.06 µM (inactive) | 11 µM (inactive) | – | 14.4 µM (inactive) | 26.5 µM (inactive) | > 100 µM (inactive) | > 52.4 µM (inactive) | 13.9 µM (inactive) | 31.6 µM (inactive) | 35.9 µM (inactive) | > 59.2 µM (inactive) | 46.5 µM (inactive) | > 100 µM (inactive) | 26.7 µM (inactive) | 39.5 µM (inactive) | 34.5 µM (inactive) | 27.3 µM (inactive) | 8.22 µM (inactive) | 29.9 µM (inactive)
CCOC(=O)C(=O)C(=O)NN(C)C1=NCCN1 | > 100 µM (inactive) | > 100 µM (inactive) | > 100 µM (inactive) | > 100 µM (inactive) | > 100 µM (inactive) | > 100 µM (inactive) | > 100 µM (inactive) | > 100 µM (inactive) | > 100 µM (inactive) | > 100 µM (inactive) | > 100 µM (inactive) | > 100 µM (inactive) | > 100 µM (inactive) | > 100 µM (inactive) | > 100 µM (inactive) | > 100 µM (inactive) | > 100 µM (inactive) | > 100 µM (inactive) | > 100 µM (inactive) | > 100 µM (inactive)
O=[N+]([O-])/C(C(Cl)=C(Cl)Cl)=C(\N1CCCCC1)n1nnc2ccccc21 | 19.5 µM (inactive) | 17.2 µM (inactive) | 8.41 µM (inactive) | 17.3 µM (inactive) | 19.3 µM (inactive) | 17.3 µM (inactive) | 22.6 µM (inactive) | 19.7 µM (inactive) | 0.443 µM (active) | 25.6 µM (inactive) | 19.9 µM (inactive) | 8.47 µM (inactive) | 17.9 µM (inactive) | 17.8 µM (inactive) | 20.3 µM (inactive) | 16.2 µM (inactive) | 18.7 µM (inactive) | 17.5 µM (inactive) | – | 25.8 µM (inactive)
Nc1ccc2c(c1)CN1C(=O)c3ccccc3C1=N2 [DANIQUIDONE] | 69.3 µM (inactive) | 74.6 µM (inactive) | 67.5 µM (inactive) | 10.3 µM (inactive) | 36.9 µM (inactive) | 104 µM (inactive) | 31 µM (inactive) | 14.7 µM (inactive) | 3.77 µM (inactive) | 30.2 µM (inactive) | 22 µM (inactive) | 51.3 µM (inactive) | 96.6 µM (inactive) | 64.9 µM (inactive) | 45.3 µM (inactive) | 34.2 µM (inactive) | 27.4 µM (inactive) | 16.8 µM (inactive) | 10.7 µM (inactive) | 50.7 µM (inactive)
Oc1cn(-c2ccc(Cl)cc2)nc1-c1n[nH]c(=S)n1-c1ccccc1 | 19.8 µM (inactive) | 5.46 µM (inactive) | 3.95 µM (inactive) | 5.92 µM (inactive) | > 100 µM (inactive) | 7 µM (inactive) | 14.1 µM (inactive) | 18.8 µM (inactive) | 62.7 µM (inactive) | 21.1 µM (inactive) | 14.9 µM (inactive) | 27.2 µM (inactive) | 20.7 µM (inactive) | 24.2 µM (inactive) | 5.01 µM (inactive) | 4.6 µM (inactive) | 22.3 µM (inactive) | 4.19 µM (inactive) | – | 4.36 µM (inactive)
CC(NNC(=O)c1cc[n+]([BH2-]C#N)cc1)c1ccccc1F (stereo not given) | – | > 100 µM (inactive) | > 100 µM (inactive) | > 100 µM (inactive) | > 100 µM (inactive) | > 100 µM (inactive) | > 100 µM (inactive) | > 100 µM (inactive) | > 100 µM (inactive) | > 100 µM (inactive) | > 100 µM (inactive) | > 100 µM (inactive) | > 100 µM (inactive) | > 100 µM (inactive) | > 100 µM (inactive) | > 100 µM (inactive) | > 100 µM (inactive) | > 100 µM (inactive) | > 100 µM (inactive) | > 100 µM (inactive)
C/C=C/C=C/c1nc(C#N)c(N)o1 | > 100 µM (inactive) | > 100 µM (inactive) | > 100 µM (inactive) | > 100 µM (inactive) | > 100 µM (inactive) | > 100 µM (inactive) | 99.3 µM (inactive) | > 100 µM (inactive) | 63.8 µM (inactive) | > 100 µM (inactive) | > 100 µM (inactive) | > 100 µM (inactive) | > 100 µM (inactive) | > 100 µM (inactive) | 41.6 µM (inactive) | > 100 µM (inactive) | > 100 µM (inactive) | – | 7.08 µM (inactive) | –
C=C(C)[C@@H]1CCC2=C[C@H](OC2=O)[C@@]2(C)C[C@@H]2C(=O)/C=C(/C)C(=O)[C@H]1OC(C)=O | 11.1 µM (inactive) | 4.12 µM (inactive) | – | 7.13 µM (inactive) | 41.2 µM (inactive) | 24.4 µM (inactive) | 29.2 µM (inactive) | 17.3 µM (inactive) | 5.66 µM (inactive) | 38.9 µM (inactive) | 15.1 µM (inactive) | 21.2 µM (inactive) | 21.1 µM (inactive) | 15.5 µM (inactive) | 4.3 µM (inactive) | 14.1 µM (inactive) | 5.97 µM (inactive) | 16.2 µM (inactive) | 5.02 µM (inactive) | 17.7 µM (inactive)
COc1cccc2c1C(=O)c1c(O)c3c(c(O)c1C2=O)CC(O)(C(C)=O)CC3OC1OC(COC(C)=O)C(OC(C)=O)C(OC(C)=O)C1OC(C)=O (stereo not given) | 25.7 µM (inactive) | – | 18.5 µM (inactive) | 16.8 µM (inactive) | 0.515 µM (active) | 43.8 µM (inactive) | > 100 µM (inactive) | 17.4 µM (inactive) | 12.8 µM (inactive) | 9.29 µM (inactive) | 11.5 µM (inactive) | 0.116 µM (active) | < 0.01 µM (active) | 24.1 µM (inactive) | > 100 µM (inactive) | 16.3 µM (inactive) | 26.9 µM (inactive) | 23.9 µM (inactive) | 0.0276 µM (active) | 52.7 µM (inactive)
CCOC(=O)C1CCCC1S(=O)(=O)c1ccc(C)cc1 (stereo not given) | > 100 µM (inactive) | > 100 µM (inactive) | > 100 µM (inactive) | – | > 100 µM (inactive) | > 100 µM (inactive) | > 100 µM (inactive) | > 100 µM (inactive) | > 100 µM (inactive) | 84.1 µM (inactive) | > 100 µM (inactive) | > 100 µM (inactive) | – | > 100 µM (inactive) | > 100 µM (inactive) | > 100 µM (inactive) | > 100 µM (inactive) | > 100 µM (inactive) | > 100 µM (inactive) | > 100 µM (inactive)
COC1C(N(C)C)=C(c2ccccc2)C(=O)N2CCc3ccccc3C12 (stereo not given) | > 100 µM (inactive) | – | – | > 100 µM (inactive) | > 100 µM (inactive) | > 100 µM (inactive) | > 100 µM (inactive) | > 100 µM (inactive) | 79.1 µM (inactive) | > 100 µM (inactive) | > 100 µM (inactive) | > 100 µM (inactive) | > 100 µM (inactive) | > 100 µM (inactive) | > 100 µM (inactive) | > 100 µM (inactive) | > 100 µM (inactive) | > 100 µM (inactive) | > 100 µM (inactive) | > 100 µM (inactive)
